Measurements as given in patent publication US4609730A, “7-[substituted imino-2-(2-aminothiazol-4-yl)-acetamido]-3(2,2-dihalovinyl or ethynyl)-3-cephem-4-carboxylic acid (syn isomers), having antimicrobial activities” (Fujisawa Pharmaceutical Co., Ltd., priority 1982, dated 1986).
In brackets after ≈: the same amount, converted by molar mass.

Columns and labels:
in vivo = details: rat, po, 100 mg/kg
Method: Rats anesthetized with pentobarbital were fixed in supine position, and a polyethylene cannula was inserted into the bile duct. Bile samples were collected at 0 to 3, 3 to 6, and 6 to 24 hours after oral administration of 100 mg/kg of the test antibiotic. The antibiotic levels in the bile samples were bioassayed with the standard solution prepared with M/15 phosphate buffer (pH 7.0) and the biliary recovery in 24 hours were calculated.

Klebsiella pneumoniae 20 = assay: Minimal inhibitory concentration (MIC), two-fold agar-plate dilution method, Klebsiella pneumoniae 20; assay type: cell-based; details: HI-agar, 37° C., 20 hours, 10^8 viable cells per ml
Method: (§1) In vitro antibacterial activity was determined by the two-fold agar-plate dilution method as described below.
(§2) One loopful of an overnight culture of each test strain in Trypticase-soy broth (10^8 viable cells per ml) was streaked on heart infusion agar (HI-agar) containing graded concentrations of representative test compound, and the minimal inhibitory concentration (MIC) was expressed in terms of μg/ml after incubation at 37° C. for 20 hours.

Proteus vulgaris 2 = assay: Minimal inhibitory concentration (MIC), two-fold agar-plate dilution method, Proteus vulgaris 2; assay type: cell-based; details: HI-agar, 37° C., 20 hours, 10^8 viable cells per ml
Method: as §1, §2

Proteus mirabilis 18 = assay: Minimal inhibitory concentration (MIC), two-fold agar-plate dilution method, Proteus mirabilis 18; assay type: cell-based; details: HI-agar, 37° C., 20 hours, 10^8 viable cells per ml
Method: as §1, §2

[1] = Urinary excretion in rats after oral administration; assay type: in vivo; details: rat, 100 mg/kg, urine 0-24 hours, bioassay, read-out: Urinary recovery in 24 hours
Method: Urine of rats was collected with a urine collector at 0 to 6, and 6 to 24 hours after oral administration of 100 mg/kg of the test antibiotic. The antibiotic levels in the urine samples were bioassayed with the standard solution prepared with M/15 phosphate buffer pH 7.0) and the urinary recovery in 24 hours was calculated.

Row | SMILES | dose excreted at 24 h (in vivo) | MIC (Klebsiella pneumoniae 20) | MIC (Proteus vulgaris 2) | MIC (Proteus mirabilis 18) | dose excreted at 24 h [1]
1 | C#CC1=C(C(=O)O)N2C(=O)C(NC(=O)/C(=N\OCC(=O)O)c3csc(N)n3)C2SC1 (stereo not drawn) [A, 7-[2-Carboxymethoxyimino-2-(2-aminothiazol-4-yl)-acetamido]-3-ethynyl-3-cephem-4-carboxylic acid (syn isomer)] | 7.46% | 0.1 µg/mL (≈ 0.222 µM) | 0.025 µg/mL (≈ 0.0554 µM) | 0.05 µg/mL (≈ 0.111 µM) | 20%
2 | CO/N=C(\C(=O)NC1C(=O)N2C(C(=O)O)=C(C=C(Cl)Cl)CSC12)c1csc(N)n1 (stereo not drawn) [B, 7-[2-Methoxyimino-2-(2-aminothiazol-4-yl)acetamido]-3-(2,2-dichlorovinyl)-3-cephem-4-carboxylic acid (syn isomer)] | – | 0.025 µg/mL (≈ 0.0523 µM) | 0.025 µg/mL (≈ 0.0523 µM) | 0.05 µg/mL (≈ 0.105 µM) | –
